Data as given in patent US20180202936A1, “Modified Hydrocyanine Dyes for the Detection of Reactive Oxygen Species” (Life Technologies Corporation, priority 2010, published 2018).

Tests used:
Assay type in all cases: cell-based
[1] = test system: Live Jurkat cells; assay: Flow cytometry of ROS formation in live Jurkat cells (Example 4); conditions: 100 μM Menadione or 500 nM PMA, 1 hr; 5 μM Far Red ROS Sensor 30 min; 635 nm excitation, emission 650-670 nm
Procedure: Live Jurkat cells were treated with or without either 100 μM Menadione or 500 nM phorbol myristate acetate (PMA) for 1 hr. The cells were stained with 5 μM Far Red ROS Sensor and Hoechst 33342 for 30 mins. The cells were washed 3 times with PBS and then analyzed at approximately 400 events per second on a BD® LSR II flow cytometer (Beckton Dickinson, Franklin Lakes, N.J.) with 635 nm laser excitation and fluorescence emission collected from 650-670 nm.

[2] = test system: BPAE cells; assay: Specificity of ROS signal: superoxide scavenger in menadione-treated BPAE cells (Example 8); conditions: 100 μM MnTBAP, last 30 min; 100 μM Menadione 1 h; Far Red ROS Sensor readout
Procedure: (§1) BPAE cells or RAW macrophages were plated in 96-well plates. BPAE cells were treated with or without 100 μM Menadione for 1 h. 100 μM of superoxide scavenger, MnTBAP was added to some of the control and menadione-treated wells for the last 30 min of incubation. RAW cells were treated with or without 500 ng/mL of Lipopolysachharide (LPS) with or without Diphenylenelodinium (DPI), an NADPH oxidase inhibitor.

[3] = test system: RAW macrophages; assay: Specificity of ROS signal: NADPH oxidase inhibitor in LPS-treated RAW cells (Example 8); conditions: 500 ng/mL LPS; Far Red ROS Sensor readout
Procedure: as §1

[4] = test system: HepG2 cells; assay: Multiplexed measurement of oxidative stress, cytotoxicity and apoptosis in HepG2 cells (Example 10); conditions: 50 μM Nefazodone 24 h
Procedure: For the last 30 min of Nefazodone treatment, the cells were either stained with 5 μM Far Red ROS Sensor and 20 nM Image-IT® DEAD Green™ viability stain (Life Technologies Corp., Carlsbad, Calif.), FIG. 10a) or 5 μM Far Red ROS Sensor and 5 μM fluorogenic CaspaGreen caspase substrate (FIG. 10b). […] Image-iT® DEAD Green™ measures plasma membrane permeability, a marker for cytotoxicity.

Q: How did the “ROS formation after treatment” value [1] turn out when CC1=CC(=O)c2ccccc2C1=O [Menadione] was run?
A: increase in ROS formation

Q: For O=C(O)c1ccc(/C2=C3\C=CC(=N3)/C(c3ccc(C(=O)O)cc3)=c3/cc/c4[n]3[Mn]([Cl])[n]3c2ccc3/C(c2ccc(C(=O)O)cc2)=C2/C=CC(=N2)\C=4c2ccc(C(=O)O)cc2)cc1 [MnTBAP], which “effect on ROS caused by Menadione” value [2] is on record?
A: inhibited ROS

Q: Which “ROS formation after treatment” value [1] does the source give for CCCCCCCCCCCCCC(=O)O[C@@H]1[C@@H](C)[C@@]2(O)[C@@H](C=C(CO)C[C@]3(O)C(=O)C(C)=C[C@@H]23)[C@@H]2C(C)(C)[C@]12OC(C)=O [PMA, phorbol myristate acetate] here?
A: increase in ROS formation

Q: For c1ccc2c(c1)[I+]c1ccccc1-2 [DPI, Diphenylenelodinium], which “effect on ROS caused by LPS” value [3] is on record?
A: inhibited ROS

Q: Which results are given for CCc1nn(CCCN2CCN(c3cccc(Cl)c3)CC2)c(=O)n1CCOc1ccccc1 [Nefazodone]?
A: apoptosis (fluorogenic CaspaGreen caspase substrate) ([4]; 5 μM CaspaGreen caspase substrate): increased nuclear staining; oxidative stress (Far Red ROS Sensor) ([4]; 5 μM Far Red ROS Sensor): causes oxidative stress
